In patent publication US20230093861A1, “RAPAMYCIN ANALOGS AS MTOR INHIBITORS” (Revolution Medicines, Inc., priority 2017, published 2023):
Where two headings read alike, the source gives them in different places.

What was measured:
[1] = tested on: P-4E-BP1 (T37/46); experiment: Cell based AlphaLISA assay, inhibition of P-4E-BP1 (T37/46) (mTORC1 substrate phosphorylation) in MDA-MB-468 cells; details: Homo sapiens, AlphaLISA, two to four hours at 37° C., read-out: pIC50 for Inhibition of mTORC1 and mTORC2 Substrate Phosphorylation, P-4E-BP1-(T37/46) (converted)
Summary of the method: (§1)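 After treatment, cells were lysed in the kit's buffer once assay medium was withdrawn. Duplicate Alpha measurements tracked each phospho-epitope, and dose-response data were fitted to IC50 following normalization to control wells.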

[2] = tested on: P-P70S6K (T389); experiment: Cell based AlphaLISA assay, inhibition of P-P70S6K (T389) (mTORC1 substrate phosphorylation) in MDA-MB-468 cells; details: Homo sapiens, 4 h, AlphaLISA, two to four hours at 37° C., read-out: pIC50 for Inhibition of mTORC1 and mTORC2 Substrate Phosphorylation, P-P70S6K-(T389) (converted)
Summary of the method: as §1

[3] = tested on: P-Akt (S473); experiment: Cell based AlphaLISA assay, inhibition of P-Akt (S473) (mTORC2 substrate phosphorylation) in MDA-MB-468 cells; details: Homo sapiens, AlphaLISA, two to four hours at 37° C., read-out: pIC50 for Inhibition of mTORC1 and mTORC2 Substrate Phosphorylation, p-AKT 1/2/3 -(S473) (converted)
Summary of the method: as §1

Row | SMILES | IC50 ([1]; MDA-MB-468, 4 h) [nM] | IC50 [2] [nM] | IC50 ([3]; MDA-MB-468, 4 h) [nM] | IC50 ([1]; 4 h) [nM] | IC50 ([3]; 4 h) [nM]
1 | CO[C@H]1C[C@@H]2CC[C@@H](C)[C@@](O)(O2)C(=O)C(=O)N2CCCC[C@H]2C(=O)O[C@H]([C@H](C)C[C@@H]2CC[C@@H](OCCCCc3cn(CCOCCOCCOCCOCCOCCOCCOCCOCCC(=O)NCCCCn4nc(-c5ccc6oc(N)nc6c5)c5c(N)ncnc54)nn3)[C@H](OC)C2)C[C@@H](OC)[C@H](C)/C=C(\C)[C@@H](O)[C@@H](OC)C(=O)[C@H](C)C[C@H](C)/C=C/C=C/C=C/1C [Example 77] | < 3.16 | < 1 | 3.16 to 31.6 |  | 
2 | CCO[C@@H]1C[C@@H]([C@H](C)C[C@@H]2CC[C@H](n3cc(COC(=O)NCCOCCOCCOCCC(=O)NCCOCCOCCC(=O)NCCCCn4nc(-c5cc6cc(O)ccc6[nH]5)c5c(N)ncnc54)nn3)[C@H](OC)C2)OC(=O)[C@@H]2CCCCN2C(=O)C(=O)[C@]2(O)O[C@@H](CC[C@H]2C)C[C@H](OC)/C(C)=C/C=C/C=C/[C@@H](C)C[C@@H](C)C(=O)[C@H](OC)[C@H](O)/C(C)=C/[C@H]1C [Example 148] | > 1000 | 10 to 1000 | > 1000 |  | 
3 | CO[C@H]1C[C@@H]2CC[C@@H](C)[C@@](O)(O2)C(=O)C(=O)N2CCCC[C@H]2C(=O)O[C@H]([C@H](C)C[C@@H]2CC[C@H](n3cc(CCCC(=O)NCCOCCOCCOCCC(=O)NCCOCCOCCOCCC(=O)NCCCCn4nc(-c5ccc6oc(N)nc6c5)c5c(N)ncnc54)nn3)[C@H](OC)C2)C/C(=N/OC(C)(C)C)[C@H](C)/C=C(\C)[C@@H](O)[C@@H](OC)C(=O)[C@H](C)C[C@H](C)/C=C/C=C/C=C/1C [Example 177] | > 1000 | 10 to 1000 | > 1000 |  | 
4 | CO[C@H]1C[C@@H]2CC[C@@H](C)[C@@](O)(O2)C(=O)C(=O)N2CCCC[C@H]2C(=O)O[C@H]([C@H](C)C[C@@H]2CC[C@H](n3cc(CCCC(=O)NCCOCCOCCOCCC(=O)NCCOCCOCCOCCC(=O)NCCCCn4nc(-c5cc6cc(O)ccc6[nH]5)c5c(N)ncnc54)nn3)[C@H](OC)C2)C/C(=N/OC(C)(C)C)[C@H](C)/C=C(\C)[C@@H](O)[C@@H](OC)C(=O)[C@H](C)C[C@H](C)/C=C/C=C/C=C/1C [Example 178] | > 1000 | 10 to 1000 | > 1000 |  | 
5 | CO[C@H]1C[C@@H]2CC[C@@H](C)[C@@](O)(O2)C(=O)C(=O)N2CCCC[C@H]2C(=O)O[C@H]([C@H](C)C[C@@H]2CC[C@H](n3cc(COC(=O)NCCOCCOCCOCCC(=O)NCCOCCOCCC(=O)NCCCCn4nc(-c5cc6cc(O)ccc6[nH]5)c5c(N)ncnc54)nn3)[C@H](OC)C2)C/C(=N/OC(C)(C)C)[C@H](C)/C=C(\C)[C@@H](O)[C@@H](OC)C(=O)[C@H](C)C[C@H](C)/C=C/C=C/C=C/1C [Example 159] | > 1000 | < 1 | > 1000 |  | 
6 | CO[C@H]1C[C@@H]2CC[C@@H](C)[C@@](O)(O2)C(=O)C(=O)N2CCCC[C@H]2C(=O)O[C@H]([C@H](C)C[C@@H]2CC[C@H](n3cc(CCCC(=O)NCCOCCOCCOCCOCCC(=O)NCCOCCOCCOCCOCCC(=O)NCCCCn4nc(-c5cc6cc(O)ccc6[nH]5)c5c(N)ncnc54)nn3)[C@H](OC)C2)CC(=O)[C@H](C)/C=C(\C)[C@@H](O)[C@@H](OC)C(=O)[C@H](C)C[C@H](C)/C=C/C=C/C=C/1C [Example 135] | 3.16 to 31.6 | 1 to 10 | 31.6 to 1000 |  | 
7 | CO[C@H]1C[C@@H]2CC[C@@H](C)[C@@](O)(O2)C(=O)C(=O)N2CCCC[C@H]2C(=O)O[C@H]([C@H](C)C[C@@H]2CC[C@@H](OCCCCc3cn(CCOCCOCCOCCOCCOCCOCCOCCOCCC(=O)N4CCN(c5cc(-n6nc(-c7ccc8oc(N)nc8c7)c7c(N)ncnc76)ncn5)CC4)nn3)[C@H](OC)C2)CC(=O)[C@H](C)/C=C(\C)[C@@H](O)[C@@H](OC)C(=O)[C@H](C)C[C@H](C)/C=C/C=C/C=C/1C [Example 95] | < 3.16 | < 1 | 3.16 to 31.6 |  | 
8 | CO[C@H]1C[C@@H]2CC[C@@H](C)[C@@](O)(O2)C(=O)C(=O)N2CCCC[C@H]2C(=O)O[C@H]([C@H](C)C[C@@H]2CC[C@H](n3cc(-c4cnc(N5CCN(c6ncc(C(=O)NCCOCCOCCC(=O)NCCCCn7nc(-c8cc9cc(O)ccc9[nH]8)c8c(N)ncnc87)cn6)CC5)nc4)nn3)[C@H](OC)C2)CC(=O)[C@H](C)/C=C(\C)[C@@H](O)[C@@H](OC)C(=O)[C@H](C)C[C@H](C)/C=C/C=C/C=C/1C [Example 112] | > 1000 | < 1 | > 1000 |  | 
9 | CO[C@H]1C[C@@H]2CC[C@@H](C)[C@@](O)(O2)C(=O)C(=O)N2CCCC[C@H]2C(=O)O[C@H]([C@H](C)C[C@@H]2CC[C@@H](OCCOCc3cn(CCOCCOCCOCCOCCOCCOCCOCCOCCC(=O)NCCCCn4nc(-c5cc6cc(O)ccc6[nH]5)c5c(N)ncnc54)nn3)[C@H](OC)C2)CC(=O)[C@H](C)/C=C(\C)[C@@H](O)[C@@H](OC)C(=O)[C@H](C)C[C@H](C)/C=C/C=C/C=C/1C [Example 53] |  | < 1 |  | < 3.16 | 3.16 to 31.6
10 | CO[C@H]1C[C@@H]2CC[C@@H](C)[C@@](O)(O2)C(=O)C(=O)N2CCCC[C@H]2C(=O)O[C@H]([C@H](C)C[C@@H]2CC[C@H](n3cc(COC(=O)NCCOCCOCCOCCC(=O)NCc4cnc(N5CCN(c6ncc(C(=O)NCCCCn7nc(-c8cc9cc(O)ccc9[nH]8)c8c(N)ncnc87)cn6)CC5)nc4)nn3)[C@H](OC)C2)CC(=O)[C@H](C)/C=C(\C)[C@@H](O)[C@@H](OC)C(=O)[C@H](C)C[C@H](C)/C=C/C=C/C=C/1C [Example 184] | < 3.16 | < 1 | 3.16 to 31.6 |  | 
11 | CCO[C@@H]1C[C@@H]([C@H](C)C[C@@H]2CC[C@@H](O)[C@H](OC)C2)OC(=O)[C@@H]2CCCCN2C(=O)C(=O)[C@]2(O)O[C@@H](CC[C@H]2C)C[C@H](OC)/C(C)=C/C=C/C=C/[C@@H](C)C[C@@H](C)C(=NOCc2cn(CCOCCOCCOCCOCCOCCOCCOCCOCCC(=O)NCCCCn3nc(-c4ccc5oc(N)nc5c4)c4c(N)ncnc43)nn2)[C@H](OC)[C@H](O)/C(C)=C/[C@H]1C [Example 64] | 3.16 to 31.6 | < 1 | 31.6 to 1000 |  | 
12 | COc1ccc(-c2ccc3ncc4c(c3c2)n(-c2ccc(N3CCN(c5ncc(CNC(=O)CCOCCOCCOCCOCCOCCOCCn6cc(CCCCO[C@@H]7CC[C@@H](C[C@@H](C)[C@@H]8CC(=O)[C@H](C)/C=C(\C)[C@@H](O)[C@@H](OC)C(=O)[C@H](C)C[C@H](C)/C=C/C=C/C=C(\C)[C@@H](OC)C[C@@H]9CC[C@@H](C)[C@@](O)(O9)C(=O)C(=O)N9CCCC[C@H]9C(=O)O8)C[C@H]7OC)nn6)cn5)CC3)c(C(F)(F)F)c2)c(=O)n4C)cn1 [Example 66] | < 3.16 | < 1 | < 3.16 |  | 
13 | CO[C@H]1C[C@@H]2CC[C@@H](C)[C@@](O)(O2)C(=O)C(=O)N2CCCC[C@H]2C(=O)O[C@H]([C@H](C)C[C@@H]2CC[C@H](n3cc(-c4cnc(N5CCN(c6ncc(C(=O)NCCOCCOCCOCCOCCC(=O)NCCCCn7nc(-c8cc9cc(O)ccc9[nH]8)c8c(N)ncnc87)cn6)CC5)nc4)nn3)[C@H](OC)C2)CC(=O)[C@H](C)/C=C(\C)[C@@H](O)[C@@H](OC)C(=O)[C@H](C)C[C@H](C)/C=C/C=C/C=C/1C [Example 116] | 3.16 to 31.6 | < 1 | > 1000 |  | 
14 | CO[C@H]1C[C@@H]2CC[C@@H](C)[C@@](O)(O2)C(=O)C(=O)N2CCCC[C@H]2C(=O)O[C@H]([C@H](C)C[C@@H]2CC[C@H](n3nncc3-c3cccc(-c4cnc(N5CCN(S(=O)(=O)CCc6cn(CCOCCOCCOCCOCC(=O)NCCCCn7nc(-c8ccc9oc(N)nc9c8)c8c(N)ncnc87)nn6)CC5)nc4)c3)[C@H](OC)C2)CC(=O)[C@H](C)/C=C(\C)[C@@H](O)[C@@H](OC)C(=O)[C@H](C)C[C@H](C)/C=C/C=C/C=C/1C [Example 37] | < 3.16 | < 1 | 3.16 to 31.6 |  | 
15 | CO[C@H]1C[C@@H]2CC[C@@H](C)[C@@](O)(O2)C(=O)C(=O)N2CCCC[C@H]2C(=O)O[C@H]([C@H](C)C[C@@H]2CC[C@@H](OCCCCc3cn(CCOCCOCCOCCC(=O)NCCOCCOCCOCCC(=O)NCCCCn4nc(-c5cc6cc(O)ccc6[nH]5)c5c(N)ncnc54)nn3)[C@H](OC)C2)CC(=O)[C@H](C)/C=C(\C)[C@@H](O)[C@@H](OC)C(=O)[C@H](C)C[C@H](C)/C=C/C=C/C=C/1C [Example 199] | < 3.16 | < 1 | 31.6 to 1000 |  | 
16 | CO[C@H]1C[C@@H]2CC[C@@H](C)[C@@](O)(O2)C(=O)C(=O)N2CCCC[C@H]2C(=O)O[C@H]([C@H](C)C[C@@H]2CC[C@@H](OCCCCc3cn(CCOCCOCCOCCOCCOCCOCCC(=O)N4CCN(c5ccc(-n6c(=O)ccc7cnc8ccc(-c9cnc%10ccccc%10c9)cc8c76)cc5C(F)(F)F)CC4)nn3)[C@H](OC)C2)CC(=O)[C@H](C)/C=C(\C)[C@@H](O)[C@@H](OC)C(=O)[C@H](C)C[C@H](C)/C=C/C=C/C=C/1C [Example 67] | < 3.16 | < 1 | < 3.16 |  | 
